Data on one substance can be found in patent US12234299B2, “Peptides for inducing bacteriocin synthesis and methods to identify and/or select and/or optimize the same” (SYNGULON S.A., priority 2018, dated 2025).

For assay [1], the system named is sptA promoter (PsptA), ScuR/SarF system. As to the kind of experiment: Luciferase (luxAB) promoter activity of PsptA with exogenous synthetic peptides. Type of assay: cell-based, Streptococcus salivarius HSISS4. Here is the method: (§1) Overnight precultures were diluted at a final OD600 of 0.05. A volume of 300 μl of culture samples was incubated in the wells of a sterile covered white microplate with a transparent bottom (Greiner, Alphen a/d Rijn, The Netherlands) for 75 min at 37° C. and then supplemented with synthetic peptides (1 μM, except if otherwise stated) or DMSO, and xylose where required. Growth (OD600) and luciferase (Lux) activity (expressed in relative light units) was monitored at 10 min intervals during 24 h in a multi-wells plate reader (Hidex Sense, Hidex, Turku, Finland) as previously described (Fontaine et al., 2013).

Assay [2] concerns comS promoter (PcomS). In words: Luciferase (luxAB) promoter activity of PcomS with synthetic peptides. Type of assay: cell-based, Streptococcus salivarius HSISS4. On the procedure: as §1
In assay [3] the test system is comX promoter (PcomX) and ComX-dependent promoters. In words: Luciferase (luxAB) activity of PcomX and ComX-dependent late competence promoters. Type of assay: cell-based, Streptococcus salivarius HSISS4. The settings on record: 1 μM; FIG. 9. Here is the method:
as §1

Assay [4] concerns S. salivarius producer strains; indicator strain Lactococcus lactis IL1403. In words: Bacteriocin detection assay (spot-on lawn, multilayer). The format is cell-based, Streptococcus salivarius. The conditions noted are these: FIG. 5B. Here is the method:
The spot-on lawn (multilayer) detection method was performed as followed: 10 μl of overnight cultures of producer strains were diluted in fresh M17G medium and grown to reach mid-log phase (OD600=˜0.5). In parallel, we casted plates with a bottom feeding layer (M17G 1.5% agar) supplemented with a synthetic peptide where required. Next, we mixed 100 μl of an overnight culture of Lactococcus lactis IL1403 (indicator strain) in pre-warmed soft M17G medium (0.3% agar) and casted it as a top layer. Finally, we incubated mid-log phase cultures for 30 minutes with the corresponding synthetic peptides and spotted 3 μl of the producer strains on the top layer. Plates were incubated overnight before analysis of the inhibition zones surrounding the producer colonies.

The test system of assay [5] is ScuR. In words: Mobility shift assay (EMSA) of promoter probes with purified ScuR and synthetic peptide. The format is binding, Streptococcus salivarius. The conditions noted are these: FIG. 4A. On the procedure:
All double-stranded DNA fragments (30 or 40 bp) were obtained from annealing of single-stranded Cy3-labelled (at 5′ end) and unlabeled oligonucleotides. Typically, a gel shift reaction (20 μl) was performed in a binding buffer (20 mM Tris-HCl pH 8.0, 150 mM NaCl, 1 mM EDTA, 1 mM DTT, 10% glycerol, 1 mg ml-1 BSA) and contained 150 ng labelled probe and […] StrepTag proteins. When necessary, […] of ComS peptides (unless otherwise stated) are added. The reaction is incubated at 37° C. for 10 min prior to loading of the samples on a native TBE 5% gel. The gel is next subjected to 80 V for approximately 1 h in TBE buffer. DNA complexes were detected by fluorescence on the Ettan DIGE Imager with bandpass excitation filters (nm): 540/25 (Cy3) or 635/30 (Cy5) and bandpass emission filters: 595/25 (Cy3) or 680/30 (Cy5) (GE Healthcare, Waukesha, WI).
The PCR-amplified scuR-StrepTag and gene sarF-StrepTag were cloned into the pBAD-comR-ST vector (see supplemental information). The ComR-StrepTag, ScuR-StrepTag and SarF-StrepTag recombinant proteins were overproduced in E. coli and purified as previously described (Fontaine et al., 2013) in standard native conditions on Strep-Tactin agarose beads (IBA).
(A gel shift assay detects complexes by their altered migration in electrophoresis.)

Assay [6] has as its system slvX promoter (PslvX). In words: Luciferase (luxAB) promoter activity of PslvX with synthetic peptides. Type of assay: cell-based, Streptococcus salivarius HSISS4. On the procedure:
as §1

Assay [7] concerns S. salivarius HSISS4 derivatives. As to the kind of experiment: Competence development (natural transformation frequency). Type of assay: cell-based, Streptococcus salivarius. On the procedure:
To induce competence, overnight CDMG precultures were diluted at a final OD600 of 0.05 in 300 μl (10 ml concerning the randomized peptide screen) of fresh CDMG and incubated 75 min at 37° C. Then, we added the pheromone sComS as well as DNA (overlapping PCRs or plasmids) and let the cells recover for 3 h at 37° C. before plating on M17G agar supplemented with antibiotics where required. Null-mutants were constructed by exchanging (double homologous recombination) the coding sequences (CDS) of target genes (sequence between start and stop codons) for either chloramphenicol or erythromycin resistance cassette. If stated, mutants were cleaned for the lox site-flanked resistance cassette, as previously described (Fontaine et al. Mol Microbiol 2010; 87:1113-1132). In case of deletion of multiple CDSs, the region between the start codon of the first CDS and the stop codon of the last CDS was deleted. Integration of the antibiotic resistance cassette at the right location was subsequently checked by PCR. The promoters of sptA genes was fused to the luxAB reporter genes and inserted with a chloramphenicol resistance cassette at the permissive tRNA threonine locus (HSISS4_r00061) by double homologous recombination. In case of ΔscuR and ΔsarF in-frame deletion, we used the two-step selection/counter-selection strategy previously described (Mignolet et al. Cell Rep 2018, 22:1627-1638). We transformed the wild-type strain with an overlapping PCR product composed of 4 fragments: (I) the upstream region of scuR or sarF genes, (II) the downstream region of scuR or sarF genes, (III) a cassette that includes the erythromycin resistance gene (erm) and a gene encoding the orotate transporter oroP, and finally (IV) the downstream region of scuR or sarF genes. We selected a first event of double recombination on medium supplemented with erythromycin. Next, we selected an intramolecular recombination between region (I) and (IV) that excises the erm-oroP cassette by growing cells on M17G supplemented with the toxic 5-fluoro-orotic acid (5-FOA) compound. In […] of oroP, 5-FOA is not able to cross the membrane and penetrate the cytoplasm where it is deleteriously incorporated in the nucleotide metabolic pathway (Overkamp et al., 2013). At final, we engineered an in-frame deletion mutant of scuR or sarF in which the first seven codons were fused to the last six codons without any cassette scar (see below for detailed cloning method).

Where [8] appears, read: WT background, dose response FIG. 3D.
The mark [9] stands for this setting: ΔscuR strain (SarF only), FIG. 3D.

Bounds are passed on as bounds.

With “sBI7: synthetic peptide: last 8 amino acids of the clone BI7 peptide MIAILPFWLILG (sBI7)”, the “amplitude of PsptA response compared with PslvX and PcomS” value in assay [1] (WT background, FIG. 3D) was “highest amplitude”. Besides, the “peptide concentration to which PsptA is responsive” value in assay [1] (setting [8]) was “less than 1 nM”. In addition, the “activity of all promoters (PsptA, PslvX, PcomS) in ΔsarF compared to WT” value in assay [1] (ΔsarF strain, FIG. 3D) is given as “slightly up compared to the WT”. For the same substance, the “SarF-mediated PsptA response” value in assay [1] (ΔscuR strain, FIG. 3D) is listed as “able to induce the SarF-mediated PsptA response”. In addition, the “induction of sptA, comS and slvX promoters in ΔscuR-sarF double mutant” value in assay [1] (ΔscuR-sarF, FIG. 3F) is “utterly erased”. In assay [2] (WT background, FIG. 3D), the “amplitude of PcomS response compared with PsptA and PslvX” value is recorded as “lowest”. In addition, the “peptide concentration to which PcomS is responsive” value in assay [2] (setting [8]) is “less than 1 nM”. The “PcomS activity upon sBI7 induction in ΔscuR” value in assay [2] (setting [9]) is “no activity in ΔscuR”. In addition, the “activation of comX and late competence genes under direct ComX control” value in assay [3] is reported as “cannot activate”. The “halo of inhibition around producer strain” value in assay [4] (WT strain, sBI7 concentration ranging from 1 nM to 1 μM, indicator L. lactis) is “small halo of inhibition”. The “halo of inhibition in mutant producer strains” value in assay [4] (single ΔscuR, double ΔscuR-sarF or Δslv5 strains) is “eradicated”. Moreover, the “ScuR·sBI7 affinity for PcomS and PslvX in comparison to sComS-bound ComR” value in assay [5] is on record as “appears weaker with a less stable complex”. In assay [5] (ScuR 4 μM, peptide 2:2 dilutions from 20 μM), the “peptide concentration from which ScuR shifts the PsptA probe” value is not below 0.08 nM. Moreover, in assay [5] (with sBI7), the “ScuR affinity for PcomS probe” value is “weakest affinity”. Further, in assay [5] (with sBI7), the “ScuR affinity for PsptA probe” value is given as “strongest one”. The “peptide concentration to which PslvX is responsive” value in assay [6] (setting [8]) was “less than 1 nM”. In addition, the “PslvX activity upon sBI7 induction in ΔscuR” value in assay [6] (setting [9]) is “no activity in ΔscuR”. Moreover, the “support of natural transformation” value in assay [7] (Table 6) was “ineffective to support natural transformation”. The “Competence development (transformation frequency)” value in assay [7] (Wild-type strain, ratio of transformants (chloramphenicol-resistant CFU) to total CFU count per 0.1 ug of linear DNA) was “ND (ND: not detected (<1.0E−08))”; in assay [7] (ΔsarF strain, ratio of transformants to total CFU count per 0.1 ug of linear DNA) it was “ND (ND: not detected (<1.0E−08))”; in assay [7] (ΔscuR strain, ratio of transformants to total CFU count per 0.1 ug of linear DNA), “ND (ND: not detected (<1.0E−08))”.
